Values after ≈ are worked out from the molar mass of the structure shown. Like-named read-outs stand apart in the source and are kept apart here.
Columns and labels:
[1] = Metabolic stability in swine liver tissue homogenate; assay type: in vitro ADME; details: prodrug 20 μM, 37° C.
Experimental: (§1) The representative Compounds of the Disclosure were screened for metabolic stability in swine jejunum/liver tissue homogenates, following our previously reported methods (Zimmermann et al., J. Med. Chem., 61(9):3918-29 (2018); Tenora et al., J. Med. Chem., 62(7):3524-38 (2019)). In brief, freshly collected tissues were homogenized by probe sonication in 9× volume of 0.1 M potassium phosphate buffer over ice. Post homogenization, prodrugs were spiked at a concentration of 20 μM (in triplicate) and incubated in an orbital shaker at 37° C. for 60 min. Final concentration of DMSO in the incubations was 0.2% v/v. At each time point (0, 30, 60 min), 100 μL of sample was precipitated with 300 μL of methanol containing internal standard (IS; losartan: 0.5 μM). […] After centrifugation, 50 μL of supernatant was diluted with 50 μL of water, vortexed and submitted for analysis. Prodrug disappearance over time was measured using liquid chromatography tandem mass spectrometry (LC-MS/MS).
(§2) The processed supernatants were analyzed on a Thermo Scientific Vanquish UPLC system (equipped with Vanquish autosampler, pumps, and column compartment) hyphenated to TSQ Altis mass spectrometer (Thermo Fisher Scientific Inc., Waltham MA). […] The autosampler was operated at 4° C. […] Peak area ratios obtained from peak area counts of analyte and internal standard were used to measure the disappearance of prodrugs.

[2] = Metabolic stability in swine jejunum (gut) tissue homogenate; assay type: in vitro ADME; details: prodrug 20 μM, 37° C.
Experimental: as §1, §2

[3] = Plasma stability, plasma from CES1KO mice; details: CES1KO = Mouse Plasma from CES1KO mice
[4] = Plasma stability, mouse plasma; details: MP = Mouse Plasma

| Compound | solubility (Solubility) | Liver stability (% remaining at 60 min) [1] | Efflux (Efflux) | Gut Stability (% remaining at 60 min) [2] | Plasma Stability (% remaining at 60 min) [3] | Plasma Stability (% remaining at 60 min) [4] | Efflux (Efflux; not told) |
| --- | --- | --- | --- | --- | --- | --- | --- |
| CCCC(=O)N[C@@H](CCC(=O)C=[N+]=[N-])C(=O)OC(C)C [Compound 5b, Isopropyl (S)-2-butyramido-6-diazo-5-oxohexanoate] | ~5000 µg/mL (≈ 17.6 mM) | 12 ± 1% | – | – | – | – | – |
| CCCCCC(=O)N[C@@H](CCC(=O)C=[N+]=[N-])C(=O)OC(C)C [Compound 5c, Isopropyl (S)-6-diazo-2-hexanamido-5-oxohexanoate] | ~2000 µg/mL (≈ 6.42 mM) | 0 ± 0% | – | – | – | – | – |
| CC(C)OC(=O)[C@H](CCC(=O)C=[N+]=[N-])NC(=O)CN(C)C [Compound 5d, Isopropyl (S)-6-diazo-2-(2-(dimethylamino)acetamido)-5-oxohexanoate] | – | 76 ± 0% | 2 | 98 ± 2% | – | – | – |
| CC(C)OC(=O)[C@H](CCC(=O)C=[N+]=[N-])NC(=O)c1cccnc1 [Compound 5f, Isopropyl (S)-6-diazo-2-(nicotinamido)-5-oxohexanoate] | ~5000 µg/mL (≈ 15.7 mM) | 0 ± 0% | – | – | – | – | – |
| CC(=O)N[C@@H](CCC(=O)C=[N+]=[N-])C(=O)OC(C)(C)C [Compound 5g, tert-Butyl (S)-2-acetamido-6-diazo-5-oxohexanoate] | – | 2 ± 0% | 1 | 93 ± 1% | – | – | – |
| CC(C)(C)OC(=O)[C@H](CCC(=O)C=[N+]=[N-])NC(=O)C(Cl)Cl [Compound 5i, tert-Butyl (S)-6-diazo-2-(2,2-dichloroacetamido)-5-oxohexanoate] | – | 97 ± 0% | 1 | 110 ± 2% | – | – | – |
| CC(C)(C)OC(=O)[C@H](CCC(=O)C=[N+]=[N-])NC(=O)c1cccnc1 [Compound 5j, tert-Butyl (S)-6-diazo-2-(nicotinamido)-5-oxohexanoate] | ~4000 µg/mL (≈ 12 mM) | 78 ± 1% | – | 104 ± 0% | – | – | – |
| COCCOCCOC(=O)[C@H](CCC(=O)C=[N+]=[N-])NC(C)=O [Compound 5m, 2-(2-Methoxyethoxy)ethyl (S)-2-acetamido-6-diazo-5-oxohexanoate] | – | 57 ± 0% | 5 | 87 ± 2% | – | – | – |
| CC(C)OC(=O)[C@H](CCC(=O)C=[N+]=[N-])NC(=O)[C@H](Cc1c[nH]c2ccccc12)NC(=O)C(Cl)Cl [Compound 8n, Isopropyl (S)-6-diazo-2-((S)-2-(2,2-dichloroacetamido)-3-(1H-indol-3-yl)propanamido)-5-oxohexanoate] | – | 0 ± 0% | 49 | – | 69 ± 3 (ces1KO) % | – | – |
| CC(=O)N[C@@H](Cc1c[nH]c2ccccc12)C(=O)N[C@@H](CCC(=O)C=[N+]=[N-])C(=O)OC(C)(C)C [Compound 11a, tert-Butyl (S)-2-((S)-2-acetamido-3-(1H-indol-3-yl)propanamido)-6-diazo-5-oxohexanoate] | – | 95 ± 3% | 41 | 88 ± 4% | – | 62 ± 1 (MP) % | – |
| CC(C)(C)OC(=O)[C@H](CCC(=O)C=[N+]=[N-])NC(=O)[C@H](Cc1c[nH]c2ccccc12)NC(=O)CN1CCOCC1 [Compound 11c, tert-Butyl (S)-2-((S)-3-(1H-indol-3-yl)-2-(2-morpholinoacetamido)propanamido)-6-diazo-5-oxohexanoate] | – | 80 ± 2% | 106 | 95 ± 1% | – | – | – |
| CN(C)CC(=O)N[C@@H](Cc1cn(C)c2ccccc12)C(=O)N[C@@H](CCC(=O)C=[N+]=[N-])C(=O)OC(C)(C)C [Compound 12a, tert-Butyl (S)-6-diazo-2-((S)-2-(2-(dimethylamino)acetamido)-3-(1-methyl-1H-indol-3-yl)propanamido)-5-oxohexanoate] | – | 75 ± 1% | 80 | 104 ± 2% | – | – | – |
| Cn1cc(C[C@H](NC(=O)OC2CN3CCC2CC3)C(=O)N[C@@H](CCC(=O)C=[N+]=[N-])C(=O)OC(C)(C)C)c2ccccc21 (stereo partly drawn) [Compound 12d, tert-Butyl (2S)-6-diazo-2-((2S)-3-(1-methyl-1H-indol-3-yl)-2-(((quinuclidin-3-yloxy)carbonyl)amino)propanamido)-5-oxohexanoate] | – | 89 ± 1% | – | – | 88 ± 2 (Ces1KO) % | 10 ± 2 (MP) % | 65.59 |
| C[C@H](NC(=O)CN(C)C)C(=O)N[C@@H](CCC(=O)C=[N+]=[N-])C(=O)OC(C)(C)C [Compound 13a, tert-Butyl (S)-6-diazo-2-((S)-2-(2-(dimethylamino)acetamido)propanamido)-5-oxohexanoate] | – | 95 ± 1% | 32 | 99 ± 2% | – | – | – |
| CC(C)(C)OC(=O)[C@H](CCC(=O)C=[N+]=[N-])NC(=O)CNC(=O)CN1CCOCC1 [Compound 14c, tert-Butyl (S)-6-diazo-2-(2-(2-morpholinoacetamido)acetamido)-5-oxohexanoate] | – | 100 ± 1% | 15 | 96 ± 1% | – | – | – |
| CN(C)CC(=O)N[C@@H](Cc1ccccc1)C(=O)N[C@@H](CCC(=O)C=[N+]=[N-])C(=O)OC(C)(C)C [Compound 15a, tert-Butyl (S)-6-diazo-2-((S)-2-(2-(dimethylamino)acetamido)-3-phenylpropanamido)-5-oxohexanoate] | – | 81 ± 2% | 48 | 90 ± 1% | 93 ± 1 (ces1KO MP) % | 67 ± 1 (MP) % | – |
| CC(C)C[C@H](NC(=O)CN(C)C)C(=O)N[C@@H](CCC(=O)C=[N+]=[N-])C(=O)OC(C)(C)C [Compound 16a, tert-Butyl (S)-6-diazo-2-((S)-2-(2-(dimethylamino)acetamido)-4-methylpentanamido)-5-oxohexanoate] | – | 87 ± 0% | 45 | 87 ± 1% | – | – | – |
| CN(C)CC(=O)N[C@@H](CCc1ccccc1)C(=O)N[C@@H](CCC(=O)C=[N+]=[N-])C(=O)OC(C)(C)C [Compound 20a, tert-Butyl (S)-6-diazo-2-((S)-2-(2-(dimethylamino)acetamido)-4-phenylbutanamido)-5-oxohexanoate] | – | 69 ± 1% | 61.35 | – | 102 ± 2 (ces1KO) % | 60 ± 7 (MP) % | – |
| CN(C)CC(=O)N[C@@H](Cc1ccc(C(F)(F)F)cc1)C(=O)N[C@@H](CCC(=O)C=[N+]=[N-])C(=O)OC(C)(C)C [Compound 23a, tert-Butyl (S)-6-diazo-2-((S)-2-(2-(dimethylamino)acetamido)-3-(4-(trifluoromethyl)phenyl)propanamido)-5-oxohexanoate] | – | 72 ± 0% | 32.76 | – | 70 ± 14 (Ces1KO) % | 79 ± 2 (MP) % | – |
| CN(C)CC(=O)NCCC(=O)N[C@@H](CCC(=O)C=[N+]=[N-])C(=O)OC(C)(C)C [Compound 25a, tert-Butyl (S)-6-diazo-2-(3-(2-(dimethylamino)acetamido)propanamido)-5-oxohexanoate] | – | 99 ± 1% | 16 | 92 ± 4% | – | – | – |
| COC(=O)[C@H](CCC(=O)C=[N+]=[N-])NC(=O)[C@H](Cc1c[nH]c2ccccc12)NC(=O)CN(C)C [Compound 28a, Methyl (S)-6-diazo-2-((S)-2-(2-(dimethylamino)acetamido)-3-(1H-indol-3-yl)propanamido)-5-oxohexanoate] | – | 0 ± 0% | 21 | – | – | – | – |
| [2H]C([2H])([2H])OC(=O)[C@H](CCC(=O)C=[N+]=[N-])NC(=O)[C@H](Cc1c[nH]c2ccccc12)NC(C)=O [Compound 28b, Methyl-d3 (S)-2-((S)-2-acetamido-3-(1H-indol-3-yl)propanamido)-6-diazo-5-oxohexanoate] | – | 2 ± 0% | 10 | – | – | – | – |
| CC(=O)N[C@@H](Cc1c[nH]c2ccccc12)C(=O)N[C@@H](CCC(=O)C=[N+]=[N-])C(=O)OC(CF)CF [Compound 28c, 1,3-Difluoropropan-2-yl (S)-2-((S)-2-acetamido-3-(1H-indol-3-yl)propanamido)-6-diazo-5-oxohexanoate] | – | 1 ± 0% | 11 | – | – | – | – |
| CNC(=O)[C@H](CCC(=O)C=[N+]=[N-])NC(=O)[C@H](Cc1c[nH]c2ccccc12)NC(C)=O [Compound 31b, (S)-2-((S)-2-Acetamido-3-(1H-indol-3-yl)propanamido)-6-diazo-N-methyl-5-oxohexanamide] | – | 103 ± 4% | 1 | 90 ± 2% | – | – | – |

Source: US20240246902A1, “PRODRUGS OF 6-DIAZO-5-OXO-L-NORLEUCINE” (THE JOHNS HOPKINS UNIVERSITY, priority 2021, published 2024)
